The values that follow come from US4400384A, “5-o-Cyanobenzyl-4,5,6,7-tetrahydrothieno [3,2-c] pyridine methanesulfonate and other novel salts thereof” (Sanofi, S.A., priority 1980, dated 1983).

The subject of assay [1] is blood-platelet aggregation (ADP). As to the kind of experiment: Inhibitor action on blood-platelet aggregation, ADP method (ex vivo after gastric tube dosing). The following applies: 100 mg/Kg base equivalent at 48, 24 and 2 h before blood drawing. The assay is classed as in vivo, female rats of the Wistar type. As for the experimental part: (§1) The inhibitor action on blood-platelet aggregation of the salts of the present invention was determined by two different standard methods known to the art.
(§2) The first method, involving the use of ADP (adenosine diphosphate), is that of Ferrand J. C., Gaich C., Dumas, A.--EVALUATION DE L' EFFET ANTI-AGREGANT DE LA TICLOPIDINE PAR UNE TECHNIQUE SUR SANG TOTAL. COMM. SOCIETE DE BIOLOGIE DE TOULOUSE (TOULOUSE Feb. 9, 1978), RESUME IN: REV MED TOULOUSE, 1978, 14, (SUPPL. 5) 680, referred to hereinafter as the ADP method.
(§3) Groups of 10 female rats of the Wistar type were each dosed with one of the base or one of the salts of the invention and with the corresponding maleate salt of Amselem U.S. Pat. No. 4,097,482, at periods of 48 hours, 24 hours and 2 hours prior to drawing blood for testing by the ADP and collagen techniques referred to above. The active medicaments were administered by means of a gastric tube in the form of a 5% aqueous solution of gum arabic. A dosage level of 100 mg/Kg was used for the base, and for the salts an amount was used sufficient to provide the equivalent amount of the base portion of the salt.

The subject of assay [2] is blood-platelet aggregation (collagen). Kind of assay: Inhibitor action on blood-platelet aggregation, collagen method (ex vivo after gastric tube dosing). The assay is classed as in vivo, female rats of the Wistar type. The following applies: 100 mg/Kg base equivalent at 48, 24 and 2 h before blood drawing. As for the experimental part: as §1
(§4) The second method is that described in Ferrand J. C., Lale A.--NUMERATION ET AGREGATION PLAQUETTAIRE A L AIDE DE L AUTOCOUNTER. APPLICATION A L ETUDE DE LA TICLOPIDINE. COMM. SYMPOSIUM TECHNICON INDUSTRIE (PARIS, June 15, 1978); Ferrand J. C., Lale A.--EVALUATION EX-VIVO DE L AGREGATION PLAQUETTAIRE PAR UNE TECHNIQUE AUTOMATIQUE SUR SANG TOTAL COMM. SOCIETE FRANCAISE DE BIOLOGIE CLINIQUE (PARIS Sept. 28, 1979); and J. C. Ferrand, A. Lale, D. Aubert and G. Barthelemy--APPRECIATION QUANTITATIVE DE L' ACTIVITE ANTI-AGREGANTE DE LA TICLOPIDINE PAR VOIE AUTOMATIQUE. COMM. REUNION DE L' ASOCIATION FRANCAISE DE PHARMACOLOGISTES DIJON (May 2-3, 1980), and is referred to hereafter as the collagen method.
as §3

For assay [3] the following is noted: prior art maleate; cited from earlier work.
The conditions of assay [4]: prior art maleate; cited from earlier work. The source holds these as a separate data set.
Assay [5] concerns blood-platelet aggregation. As to the kind of experiment: Inhibition of blood-platelet aggregation (general statement). The assay is classed as in vivo. The conditions noted are these: result in words. As for the experimental part:
as §1, §2
as §4, with “method. […]” for “method.”

Where a name gives a salt, the structure may show the parent alone.

With `N#Cc1ccccc1CN1CCc2sccc2C1` [Hemifumarate, 5-o-cyanobenzyl-4,5,6,7-tetrahydrothieno [3,2-c] pyridine], the “BLOOD PLATELET AGGREGATION, ADP, 1 mn 30 s” value in assay [1] (controls 0.29, 100 mg/kg) came out at 0.76. Besides, the “BLOOD PLATELET AGGREGATION, ADP, 3 mn” value in assay [1] (controls 0.40, 100 mg/kg) is on record as 0.82. Further, the “BLOOD PLATELET AGGREGATION, COLLAGEN” value in assay [2] (controls 2.53, 100 mg/kg) is 0.42.
The matching figures for `N#Cc1ccccc1CN1CCc2sccc2C1` [Hemitartrate, 5-o-cyanobenzyl-4,5,6,7-tetrahydrothieno [3,2-c] pyridine]: 0.74, 0.84 and 0.74.
In the case of `N#Cc1ccccc1CN1CCc2sccc2C1` [Hydrochloride, 5-o-cyanobenzyl-4,5,6,7-tetrahydrothieno [3,2-c] pyridine], in assay [1] (controls 0.29, 100 mg/kg), the “BLOOD PLATELET AGGREGATION, ADP, 1 mn 30 s” value is reported as 0.82. In addition, the “BLOOD PLATELET AGGREGATION, ADP, 3 mn” value in assay [1] (controls 0.40, 100 mg/kg) was 0.82. Besides, the “BLOOD PLATELET AGGREGATION, COLLAGEN” value in assay [2] (controls 2.53, 100 mg/kg) is 0.84.
`N#Cc1ccccc1CN1CCc2sccc2C1.O=C(O)/C=C\C(=O)O` [Maleate, 5-o-cyanobenzyl-4,5,6,7-tetrahydrothieno [3,2-c] pyridine maleate, reference compound]: the “BLOOD PLATELET AGGREGATION, ADP, 1 mn 30 s” value in assay [1] (controls 0.29) came to 0.70. Moreover, the “BLOOD PLATELET AGGREGATION, ADP, 3 mn” value in assay [1] (controls 0.40) is recorded as 0.81. In addition, the “BLOOD PLATELET AGGREGATION, COLLAGEN” value in assay [2] (controls 2.53) is on record as 0.80. The “vasodilator activity (prior art salt)” value in assay [3] is reported as “not free of anti-inflammatory or vasodilator activity”. The “anti-inflammatory activity (prior art salt)” value in assay [4] is reported as “not free of anti-inflammatory”. For the same compound, the “inhibitor action against blood-platelet aggregation” value in assay [5] is on record as “substantial activity in the inhibition of blood-platelet aggregation”.
In the case of `N#Cc1ccccc1CN1CCc2sccc2C1` [Nitrate, 5-o-cyanobenzyl-4,5,6,7-tetrahydrothieno [3,2-c] pyridine], the “BLOOD PLATELET AGGREGATION, ADP, 1 mn 30 s” value in assay [1] (controls 0.29, 100 mg/kg) was 0.84. Also, in assay [1] (controls 0.40, 100 mg/kg), the “BLOOD PLATELET AGGREGATION, ADP, 3 mn” value was 0.83. Also, in assay [2] (controls 2.53, 100 mg/kg), the “BLOOD PLATELET AGGREGATION, COLLAGEN” value stood at 0.91.
